Assay results from publication PMC9959553, “Promising Antifungal Molecules against Mucormycosis Agents Identified from Pandemic Response Box®: In Vitro and In Silico Analyses” (Journal of Fungi, 2023).
Values after ≈ are worked out from the molar mass of the structure shown. Like-named read-outs stand apart in the source and are kept apart here. Each block holds one molecule with its values, some of them ahead of it.

How the values were obtained:
[1] = system: R. oryzae; test: Antifungal susceptibility testing (broth microdilution, MIC and MFC); assay type: cell-based, Rhizopus oryzae; details: for MIC50 / MFC: Rhizopus arrhizus, 48 h; for MIC50: lowest concentration that inhibits 50% of fungal growth; for MFC: subculture in drug-free medium
Description: (§1) The susceptibility of the Rhizopus species to MMV396785 (alexidine), MMV1580844, MMV642550 and MMV019724 was determined using the broth microdilution method, according to EUCAST protocols, with modifications. Posaconazole and amphotericin B were also used as reference antifungal drugs because they are commonly used for the treatment of mucormycosis. […] A standardized suspension of conidia (2 × 10^5/mL) was added to the wells and incubated for 48 h at 37 °C, in a 5% CO2 atmosphere. Fungal growth was analyzed via spectrophotometry readings at 600 nm and cell viability was assessed using the XTT reduction assay. Minimum inhibitory concentration (MIC) of each compound was defined as the lowest concentration that inhibits 50% of fungal growth, because these fungi are highly resistant to antifungal drugs and a reduction in half of their growth is relevant. […] MFC values were defined as the lowest drug concentration able to arrest fungal growth.

[2] = system: R. oryzae, R. microsporus and R. stolonifer; test: Antifungal susceptibility testing, values stated over the three species; assay type: cell-based; details: over the three Rhizopus species
Description: as §1

[3] = system: R. oryzae UCP1295; test: Antifungal drug synergy assay, checkerboard method (FICI); assay type: cell-based, Rhizopus oryzae; details: Rhizopus arrhizus, UCP1295, 48 h; drug alone; read-out: MIC50 Alone
Description: (§2) Synergistic interactions were evaluated using the checkerboard method according to EUCAST guidelines (EUCAST 2008). R. oryzae conidia (2 × 10^5/mL) were grown in 96-well plates containing supplemented RPMI in the presence of the following selected compounds: […] An inhibition of at least 50% was defined as the cut-off for minimum inhibitory concentration (MIC). Interactions were determined by the fractional inhibitory concentration index (FICI), which was calculated using the following formula: (MIC combined/MIC drug A alone) + (MIC combined/MIC drug B alone). […] The Bliss independence model calculation was performed according to […] colleagues and Zhao and colleagues. The following formula was used to assess drug interaction: […] The results were classified as follows: synergistic effect when Eobs > Eexp; indifference when Eobs = Eexp; antagonistic effect when Eobs < Eexp.

[4] = system: R. microsporus; test: Antifungal susceptibility testing (broth microdilution, MIC and MFC); assay type: cell-based, Rhizopus microsporus var. microsporus; details: for MIC50 / MFC: Rhizopus microsporus, 48 h; for MIC50: lowest concentration that inhibits 50% of fungal growth; for MFC: subculture in drug-free medium
Description: as §1

[5] = system: R. oryzae; test: Antifungal drug synergy assay, Bliss independence model; assay type: cell-based, Rhizopus oryzae; design: key to Interaction: S, synergistic interaction; A, antagonist interaction; Efficacy of Combined Drugs, E obs / Efficacy of Combined Drugs, E exp: concentration or dose not given beside the values; details: for Efficacy of Drugs Alone (% of Inhibition), MIC50: at MIC50; for Efficacy of Drugs Alone (% of Inhibition), ½ MIC50: at ½ MIC50; for ΔE: Eobs minus Eexp; for Efficacy of Combined Drugs, E exp: expected by Bliss calculation
Description: as §2

[6] = cited from earlier work
[7] = system: R. stolonifer; test: Antifungal susceptibility testing (broth microdilution, MIC and MFC); assay type: cell-based, Rhizopus stolonifer; details: for MIC50 / MFC: Rhizopus stolonifer, 48 h; for MIC50: lowest concentration that inhibits 50% of fungal growth; for MFC: subculture in drug-free medium
Description: as §1

[8] = system: R. oryzae cells; test: Analysis of fungal cell alterations with fluorescent staining; assay type: cell-based, Rhizopus oryzae; details: ½× MIC50, 48 h
Description: Alterations of R. oryzae cells caused by alexidine, MMV1580844, MMV642550 and MMV019724 were analyzed using fluorescent staining. Chitin, nucleic acid, oxidative stress, mitochondrial membrane potential and neutral lipid content were evaluated using calcofluor white (Sigma-Aldrich, MO, USA), Sytox Blue (ThermoFisher, Waltham, MA, USA), 2′,7′–dichlorofluorescein diacetate (DCFH-DA) (Sigma-Aldrich, MO, USA), JC-1 probe (ThermoFisher, Waltham, MA, USA) and Nile Red (Sigma-Aldrich, MO, USA), respectively. […] Cells were stained with 25 μg/mL of calcofluor white, 20 μM of Sytox Blue, 50 μg/mL of DCFH-DA, 10 μg/mL of JC-1 or 20 μg/mL of Nile Red, all of them for 1 h at 37 °C in the dark. Samples were washed three times to remove residual dye and suspended in PBS. Fluorescence intensity was measured using the SpectraMax 340 microplate reader (Molecular Devices, San José, CA, USA) under the following conditions: calcofluor white at 350 nm (excitation) and 432 nm (emission); Sytox Blue at 444 nm (excitation) and 480 nm (emission); DCFH-DA at 492 nm (excitation) and 517 nm (emission); JC-1 at 475 nm (excitation) and 529 nm (green fluorescence) or 590 nm (red fluorescence) for the calculation of the red/green fluorescence intensity; and Nile Red at 550 nm (excitation) and 635 nm (emission).

[9] = system: R. oryzae UCP1295; test: Screening of the Pandemic Response Box library at 5 µM; assay type: cell-based, Rhizopus oryzae; details: for inhibition at 5 µM: Rhizopus arrhizus, UCP1295, 48 h; for % of growth inhibition, Mean: 48 h
Outline: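 Compounds at 5 μM in RPMI 1640 with 2% glucose and MOPS (0.165 mol/L, pH 7.2), with conidia at 2 × 10^5/mL, incubated 48 h at 37 °C in 5% CO2. Growth read by OD at 600 nm; hits defined as ≥60% inhibition. Posaconazole (5 μM) and 1% DMSO as controls.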

[10] = system: R. microsporus preformed biofilm; test: Preformed biofilm assay; assay type: cell-based, Rhizopus microsporus; details: R. microsporus, based on biofilm viability parameter
Description: (§3) For the preformed biofilm assay, cells were cultured as described above in the absence of the compounds. […] An additional incubation of 24 h at 37 °C was performed to evaluate the anti-biofilm activity. Evaluation of both biofilm formation and preformed biofilms was performed using three parameters as previously described. Crystal violet, safranin and XTT assays were used to analyze the overall biomass, extracellular matrix and metabolic activity, respectively.

[11] = system: R. stolonifer preformed biofilm; test: Preformed biofilm assay; assay type: cell-based, Rhizopus stolonifer; details: R. stolonifer, based on biofilm viability parameter
Description: as §3

[12] = Cytotoxicity assay (neutral red); assay type: cell-based, murine; details: mouse, RAW 264.7 macrophage cells
Description: (§4) Cytotoxicity of alexidine, MMV1580844, MMV642550 and MMV019724 was performed using three cell lineages: RAW 264.7, a murine macrophage culture; A549, adenocarcinomic human alveolar basal epithelial cells; and HaCaT, a spontaneously transformed aneuploid immortal keratinocyte cell line from adult human skin. Cells were grown in DMEM (Dulbecco’s Modified Eagle’s Medium, Sigma-Aldrich, MO, USA), supplemented with 10% fetal bovine serum and incubated for 48 h at 37 °C with 5% CO2 in the presence of serially diluted concentrations (0.3–50 μM) of each compound. Cell viability was measured using the neutral red (NR) assay and quantified using a spectrophotometer at 595 nm (SpectraMax® i3x, Molecular Devices®, San José, CA, USA).

[13] = Cytotoxicity assay (neutral red); assay type: cell-based; details: human
Description: as §4

[14] = Table S1, mean of the four values

MIC50 [1]: > 20 µM | MIC [2]: > 20 µM | MIC [3]: 40 µM | MIC50 [4]: > 20 µM | Efficacy of Drugs Alone (% of Inhibition), MIC50 [5]: 79.6 % of Inhibition | Efficacy of Drugs Alone (% of Inhibition), ½ MIC50 [5]: 21.4 % of Inhibition | MIC50 [7]: > 20 µM
SMILES: C[C@@H]1[C@H](O)[C@@H](C)/C=C/C=C/C=C/C=C/C=C/C=C/C=C/[C@H](O[C@@H]2O[C@H](C)[C@@H](O)[C@H](N)[C@@H]2O)C[C@@H]2O[C@](O)(C[C@@H](O)C[C@@H](O)[C@H](O)CC[C@@H](O)C[C@@H](O)CC(=O)O[C@H]1C)C[C@H](O)[C@H]2C(=O)O [Amphotericin B, reference compound]
MFC [1]: > 20 µM | MFC [2]: > 20 µM | MFC [4]: > 20 µM | oral bioavailability [6]: negligible | MFC [7]: > 20 µM

MIC50 [1]: 2.5 µM (≈ 0.874 µg/mL) | MIC [2]: 2.5 to 5 µM (≈ 0.874 to 1.75 µg/mL) | MIC [3]: 2.5 µM | MIC50 [4]: 5 µM (≈ 1.75 µg/mL) | Efficacy of Drugs Alone (% of Inhibition), MIC50 [5]: 62.9 % of Inhibition | Efficacy of Drugs Alone (% of Inhibition), ½ MIC50 [5]: 42.3 % of Inhibition | MIC50 [7]: 2.5 µM (≈ 0.874 µg/mL)
SMILES: Oc1cccc(C(Nc2nccs2)c2ccc3cccnc3c2O)c1 (stereo not shown) [MMV642550]
chitin content (calcofluor white) [8]: decreased | neutral lipids (Nile Red) [8]: decreased | Selectivity Index (SI), Planktonic Cell ([1]; R. oryzae, from CC50 and MIC50 of planktonic cells): >20 | MFC [1]: > 20 µM | inhibition at 5 µM ([9]; Table S1, mean of the four values, read-out: % of growth inhibition, Mean): 59.8% | inhibition at 5 µM ([9]; optical density 600 nm, read-out: Growth Inhibition): 60% | Viability Inhibition (XTT) ([9]; XTT reduction): 59% | Selectivity Index (SI), Preformed Biofilm [10]: >5 | Selectivity Index (SI), Preformed Biofilm [11]: >10 | CC50 at 48 h [12]: > 50 µM | CC50 at 48 h ([13]; A549 alveolar basal epithelial cells, A549, 48 h): > 50 µM | CC50 at 48 h ([13]; HaCaT keratinocyte cells): > 50 µM | Selectivity Index (SI), Planktonic Cell ([4]; R. microsporus, from CC50 and MIC50 of planktonic cells): >10 | MFC [4]: > 20 µM | Efficacy of Combined Drugs, E obs ([5]; combined with Amphotericin B): 78.1% | Interaction ([5]; combined with Amphotericin B): S | ΔE ([5]; combined with Amphotericin B): 23.5% | Efficacy of Combined Drugs, E exp ([5]; combined with Amphotericin B): 54.6% | Efficacy of Combined Drugs, E obs ([5]; combined with Posaconazole): 60.0% | Interaction ([5]; combined with Posaconazole): A | ΔE ([5]; combined with Posaconazole): −26.5% | Efficacy of Combined Drugs, E exp ([5]; combined with Posaconazole): 86.5% | Selectivity Index (SI), Planktonic Cell ([7]; R. stolonifer, from CC50 and MIC50 of planktonic cells): >20 | MFC [7]: > 20 µM

SMILES: N#C/C(=C1/SC[C@@H](c2ccc(Cl)cc2Cl)S1)n1ccnc1 [MMV1782224]
% of growth inhibition, Mean [9, 14]: -14.5%

SMILES: O=C(Nc1[nH]c(=O)ncc1F)c1ccccc1 [MMV1782225]
% of growth inhibition, Mean [9, 14]: -27.6%

SMILES: OB1OCc2c1ccc(Cl)c2F [MMV1782226]
% of growth inhibition, Mean [9, 14]: -20.0%

SMILES: O=C(NNC(=S)Nc1ccc(Cl)cc1)c1ccncc1 [MMV1782227]
% of growth inhibition, Mean [9, 14]: -24.0%

SMILES: Cc1cc(CCOc2c(C)cc(-c3nnn(C)n3)cc2C)on1 [MMV1782349]
% of growth inhibition, Mean [9, 14]: -3.0%

SMILES: CC(C)Oc1ccc(-n2cnc3cc(/C=C\c4ccc(C(C)(C)O)cc4)ccc32)cc1 [MMV1782350]
% of growth inhibition, Mean [9, 14]: 26.5%

SMILES: O=C(NC(=O)N1CCCc2ccccc21)c1cccc(Cl)c1 [MMV1782351]
% of growth inhibition, Mean [9, 14]: -17.9%

SMILES: O=C(O)COc1cccc2c1CC[C@](O)(COC(=O)N(c1ccccc1)c1ccccc1)C2 [MMV1782352]
% of growth inhibition, Mean [9, 14]: -13.6%

SMILES: CC(C)(C)NC(=O)[C@@H]1CN(Cc2cnc3occc3c2)CCN1C[C@@H](O)C[C@@H](Cc1ccccc1)C(=O)N[C@H]1c2ccccc2C[C@H]1O [MMV1782353]
% of growth inhibition, Mean [9, 14]: -11.2%
